Inhibition data for 14 compounds are collected here from ChEMBL document CHEMBL4020712, “Synthesis of new N3-substituted dihydropyrimidine derivatives as L-/T- type calcium channel blockers” (Eur J Med Chem, 2017).

The source made the active and inactive calls. The rule behind the calls is not given here.

The target of data set [1] is Cav1.2 (voltage-dependent L-type calcium channel subunit alpha-1C) (Rattus norvegicus, UniProt P22002). The data set can be described thus: Inhibition of rat Cav1.2 expressed in human tsA-201 cells co-expressing Cavbeta1b/Cavalpha2delta1 assessed as tonic block at 10 uM at holding potential of -90 mV by whole cell patch clamp method relative to control. The class given is cell-based.

For data set [2], the target named is Voltage-dependent T-type calcium channel subunit alpha-1H (Homo sapiens) (UniProt O95180). Put plainly: Inhibition of human Cav3.2 alpha1 expressed in human tsA-201 cells assessed as tonic block at 10 uM at holding potential of -110 mV by whole cell patch clamp method. Type of data set: cell-based.
Voltage-dependent T-type calcium channel subunit alpha-1H (Homo sapiens), sequence (O95180 whole entry): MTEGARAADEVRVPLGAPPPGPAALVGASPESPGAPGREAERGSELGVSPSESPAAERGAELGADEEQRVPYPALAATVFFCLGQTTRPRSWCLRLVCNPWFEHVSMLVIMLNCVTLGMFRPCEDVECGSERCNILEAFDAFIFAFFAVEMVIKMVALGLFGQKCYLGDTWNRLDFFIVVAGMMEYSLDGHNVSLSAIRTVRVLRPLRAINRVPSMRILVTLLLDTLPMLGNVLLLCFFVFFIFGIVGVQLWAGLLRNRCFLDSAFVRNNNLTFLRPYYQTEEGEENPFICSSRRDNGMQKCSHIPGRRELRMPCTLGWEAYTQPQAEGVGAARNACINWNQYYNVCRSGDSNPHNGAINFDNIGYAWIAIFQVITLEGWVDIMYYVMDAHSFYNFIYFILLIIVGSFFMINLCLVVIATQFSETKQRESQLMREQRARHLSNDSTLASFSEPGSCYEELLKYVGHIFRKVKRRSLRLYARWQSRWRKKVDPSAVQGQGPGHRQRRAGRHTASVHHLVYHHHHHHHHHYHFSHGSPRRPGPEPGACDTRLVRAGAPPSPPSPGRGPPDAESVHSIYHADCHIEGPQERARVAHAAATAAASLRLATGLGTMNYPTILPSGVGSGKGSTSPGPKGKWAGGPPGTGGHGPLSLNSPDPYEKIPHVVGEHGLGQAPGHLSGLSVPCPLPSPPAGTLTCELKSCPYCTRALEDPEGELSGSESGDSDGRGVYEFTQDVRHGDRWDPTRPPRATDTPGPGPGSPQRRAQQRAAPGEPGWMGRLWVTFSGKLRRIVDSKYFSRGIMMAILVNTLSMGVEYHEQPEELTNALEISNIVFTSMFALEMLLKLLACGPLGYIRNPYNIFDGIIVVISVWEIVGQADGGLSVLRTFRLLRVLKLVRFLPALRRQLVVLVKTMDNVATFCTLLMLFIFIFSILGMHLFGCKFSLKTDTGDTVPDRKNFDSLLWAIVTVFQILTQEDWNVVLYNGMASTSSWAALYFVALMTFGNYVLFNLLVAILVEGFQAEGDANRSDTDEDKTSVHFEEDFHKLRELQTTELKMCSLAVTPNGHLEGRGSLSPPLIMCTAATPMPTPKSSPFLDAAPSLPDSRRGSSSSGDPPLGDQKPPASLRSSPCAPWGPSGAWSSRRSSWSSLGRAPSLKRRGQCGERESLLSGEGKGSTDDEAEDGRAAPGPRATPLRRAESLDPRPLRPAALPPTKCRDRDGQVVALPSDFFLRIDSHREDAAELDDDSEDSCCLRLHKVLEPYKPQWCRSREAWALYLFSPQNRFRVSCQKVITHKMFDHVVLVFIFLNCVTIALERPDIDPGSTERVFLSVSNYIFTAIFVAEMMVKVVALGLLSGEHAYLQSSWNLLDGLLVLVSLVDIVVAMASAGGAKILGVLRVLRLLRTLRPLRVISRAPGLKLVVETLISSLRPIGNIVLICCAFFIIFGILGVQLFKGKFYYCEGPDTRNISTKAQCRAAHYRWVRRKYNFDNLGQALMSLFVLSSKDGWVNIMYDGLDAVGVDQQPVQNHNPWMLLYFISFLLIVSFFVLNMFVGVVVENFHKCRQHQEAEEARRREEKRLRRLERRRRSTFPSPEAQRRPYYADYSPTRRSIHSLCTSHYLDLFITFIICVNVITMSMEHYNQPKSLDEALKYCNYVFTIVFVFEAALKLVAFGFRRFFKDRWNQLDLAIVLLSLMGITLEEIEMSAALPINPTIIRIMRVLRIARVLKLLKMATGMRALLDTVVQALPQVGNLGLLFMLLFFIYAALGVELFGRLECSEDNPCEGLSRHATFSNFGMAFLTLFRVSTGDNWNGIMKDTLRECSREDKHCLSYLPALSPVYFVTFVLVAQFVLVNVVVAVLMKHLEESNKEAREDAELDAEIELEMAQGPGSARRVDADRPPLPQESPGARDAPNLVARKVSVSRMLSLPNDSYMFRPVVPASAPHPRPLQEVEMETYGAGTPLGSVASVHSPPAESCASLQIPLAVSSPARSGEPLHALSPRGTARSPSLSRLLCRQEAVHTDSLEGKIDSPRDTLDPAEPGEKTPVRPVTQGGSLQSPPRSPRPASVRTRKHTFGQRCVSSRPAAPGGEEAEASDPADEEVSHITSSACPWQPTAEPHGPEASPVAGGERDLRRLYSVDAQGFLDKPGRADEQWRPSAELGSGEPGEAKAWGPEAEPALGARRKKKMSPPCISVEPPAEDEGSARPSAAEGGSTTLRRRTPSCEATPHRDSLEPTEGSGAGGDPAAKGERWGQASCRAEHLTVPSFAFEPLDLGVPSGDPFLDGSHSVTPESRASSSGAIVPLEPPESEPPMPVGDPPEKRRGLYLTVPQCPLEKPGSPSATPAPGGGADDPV

Cav1.2 (voltage-dependent L-type calcium channel subunit alpha-1C), sequence (P22002 whole entry): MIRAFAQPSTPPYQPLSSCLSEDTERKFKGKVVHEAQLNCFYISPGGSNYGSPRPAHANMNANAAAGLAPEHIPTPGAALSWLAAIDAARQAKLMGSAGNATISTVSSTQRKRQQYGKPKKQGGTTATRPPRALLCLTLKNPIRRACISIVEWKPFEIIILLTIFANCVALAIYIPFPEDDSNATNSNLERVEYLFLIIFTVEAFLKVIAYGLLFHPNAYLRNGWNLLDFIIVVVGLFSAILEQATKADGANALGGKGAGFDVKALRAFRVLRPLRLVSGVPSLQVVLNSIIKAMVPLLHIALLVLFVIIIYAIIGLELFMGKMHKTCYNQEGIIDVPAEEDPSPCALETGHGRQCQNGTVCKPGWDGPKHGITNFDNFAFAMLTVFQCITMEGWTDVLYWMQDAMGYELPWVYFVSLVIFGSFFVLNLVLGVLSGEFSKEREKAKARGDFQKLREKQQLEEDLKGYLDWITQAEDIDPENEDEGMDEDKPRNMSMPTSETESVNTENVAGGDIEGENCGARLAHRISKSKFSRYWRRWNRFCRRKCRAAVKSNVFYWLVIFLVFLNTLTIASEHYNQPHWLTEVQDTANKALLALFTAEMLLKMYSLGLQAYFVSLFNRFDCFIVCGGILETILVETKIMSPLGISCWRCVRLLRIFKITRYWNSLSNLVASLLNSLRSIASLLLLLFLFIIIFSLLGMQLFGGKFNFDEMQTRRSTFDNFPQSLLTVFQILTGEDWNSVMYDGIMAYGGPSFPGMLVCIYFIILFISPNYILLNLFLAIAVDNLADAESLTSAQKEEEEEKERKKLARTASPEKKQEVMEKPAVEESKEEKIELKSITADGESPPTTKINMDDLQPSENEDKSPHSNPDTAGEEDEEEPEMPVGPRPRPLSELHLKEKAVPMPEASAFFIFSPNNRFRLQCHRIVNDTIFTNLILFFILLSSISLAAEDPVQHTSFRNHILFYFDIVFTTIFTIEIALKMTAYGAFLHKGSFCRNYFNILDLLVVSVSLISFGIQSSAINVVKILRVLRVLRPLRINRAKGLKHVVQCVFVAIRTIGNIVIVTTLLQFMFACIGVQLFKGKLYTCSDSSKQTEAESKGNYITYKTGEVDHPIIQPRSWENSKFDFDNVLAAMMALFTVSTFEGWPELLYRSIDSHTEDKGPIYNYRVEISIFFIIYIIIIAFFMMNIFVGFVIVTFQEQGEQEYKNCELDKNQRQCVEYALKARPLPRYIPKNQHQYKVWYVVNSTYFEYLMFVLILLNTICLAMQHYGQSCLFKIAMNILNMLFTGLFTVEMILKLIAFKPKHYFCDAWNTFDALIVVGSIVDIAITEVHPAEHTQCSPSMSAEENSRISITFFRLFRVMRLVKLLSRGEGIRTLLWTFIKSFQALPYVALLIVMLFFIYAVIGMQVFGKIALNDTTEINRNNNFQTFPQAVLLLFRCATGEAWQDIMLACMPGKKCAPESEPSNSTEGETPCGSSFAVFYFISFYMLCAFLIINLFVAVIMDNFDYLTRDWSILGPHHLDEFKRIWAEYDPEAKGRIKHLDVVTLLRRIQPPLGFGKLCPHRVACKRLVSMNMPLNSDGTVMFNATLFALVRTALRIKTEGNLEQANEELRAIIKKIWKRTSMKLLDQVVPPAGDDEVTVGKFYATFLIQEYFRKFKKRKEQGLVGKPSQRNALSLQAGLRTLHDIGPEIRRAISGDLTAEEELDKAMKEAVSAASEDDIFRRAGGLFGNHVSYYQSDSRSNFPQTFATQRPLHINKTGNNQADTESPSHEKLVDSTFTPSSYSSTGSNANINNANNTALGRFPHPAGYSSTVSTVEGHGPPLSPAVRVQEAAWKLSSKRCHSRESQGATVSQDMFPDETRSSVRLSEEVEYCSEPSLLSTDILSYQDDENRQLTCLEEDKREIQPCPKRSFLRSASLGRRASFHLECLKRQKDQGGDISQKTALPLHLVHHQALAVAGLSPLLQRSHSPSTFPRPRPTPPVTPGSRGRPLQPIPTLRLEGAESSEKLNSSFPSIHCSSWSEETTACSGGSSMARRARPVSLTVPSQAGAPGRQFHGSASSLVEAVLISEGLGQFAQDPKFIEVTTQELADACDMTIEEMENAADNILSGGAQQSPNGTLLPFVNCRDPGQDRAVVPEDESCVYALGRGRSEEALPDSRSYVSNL

In the case of `CCOC(=O)C1=C(C)NC(=O)N(CCC(=O)NCC(c2ccccc2)c2ccccc2)C1c1cccc([N+](=O)[O-])c1` (stereo not drawn), the inhibition at 10 µM in data set [1] is under 50%. Moreover, the inhibition entry in data set [2] was “inactive”.

Take `CCOC(=O)CCN1C(=O)NC(C)=C(C(=O)OCC)C1c1cccc([N+](=O)[O-])c1` (stereo not drawn): the inhibition at 10 µM in data set [1] was over 75%. Moreover, the inhibition result in data set [2] is “Active”.

For the compound `CCOC(=O)C1=C(C)NC(=O)N(CCC(N)=O)C1c1cccc([N+](=O)[O-])c1` (stereo not drawn), the inhibition at 10 µM in data set [1] is under 50%. Further, the inhibition result in data set [2] was “inactive”.

Regarding `CCOC(=O)C1=C(C)NC(=O)N(CCC(=O)NN)C1c1cccc([N+](=O)[O-])c1` (stereo not drawn), the inhibition at 10 µM in data set [1] is under 50%. The inhibition result in data set [2] was “inactive”.

For `CCOC(=O)C1=C(C)NC(=O)N(CCC#N)C1c1cccc([N+](=O)[O-])c1` (stereo not drawn), the inhibition at 10 µM in data set [1] is under 50%. In addition, the inhibition entry in data set [2] is “inactive”.

`CCOC(=O)C1=C(C)NC(=O)N(CCC(=O)OC(C)C)C1c1cccc([N+](=O)[O-])c1` (stereo not drawn): the inhibition at 10 µM in data set [1] is under 50%. For the same compound, in data set [2], the inhibition entry is “inactive”.

Turning to `C#CCOC(=O)CCN1C(=O)NC(C)=C(C(=O)OCC)C1c1cccc([N+](=O)[O-])c1` (stereo not drawn), in data set [1], the inhibition at 10 µM amounted to 50%. In addition, the inhibition result in data set [2] was “Active”.

As for `CCOC(=O)C1=C(C)NC(=O)N(CCC(=O)OCCOC)C1c1cccc([N+](=O)[O-])c1` (stereo not drawn), the inhibition at 10 µM in data set [1] came out at 50%. In addition, the inhibition entry in data set [2] is “Active”.

With `CCOC(=O)C1=C(C)NC(=O)N(CCC(=O)N(C)Cc2ccccc2)C1c1cccc([N+](=O)[O-])c1` (stereo not drawn), the inhibition at 10 µM in data set [1] was under 50%. Besides, in data set [2], the inhibition result is “inactive”.

On to `CCOC(=O)C1=C(C)NC(=O)N(CCC(=O)OCc2cn(CC(=O)c3ccccc3)nn2)C1c1cccc([N+](=O)[O-])c1` (stereo not drawn), for which, in data set [1], the inhibition at 10 µM is under 50%. Also, the inhibition result in data set [2] was “Active”.

Turning to `CCOC(=O)C1=C(C)NC(=O)N(CCC(=O)OCc2cn(Cc3ccccc3)nn2)C1c1cccc([N+](=O)[O-])c1` (stereo not drawn), in data set [1], the inhibition at 10 µM is under 50%. In addition, the inhibition result in data set [2] was “Active”.

Consider `CCOC(=O)C1=C(C)NC(=O)N(CCC(=O)O)C1c1cccc([N+](=O)[O-])c1` (stereo not drawn), for which the inhibition at 10 µM in data set [1] is under 50%. Besides, the inhibition entry in data set [2] was “inactive”.

`CCOC(=O)C1=C(C)NC(=O)N(CCC(=O)OC)C1c1cccc([N+](=O)[O-])c1` (stereo not drawn): in data set [1], the inhibition at 10 µM is under 50%. The inhibition result in data set [2] was “inactive”.

`CCOC(=O)C1=C(C)NC(=O)N(CCC(=O)NCc2ccccc2)C1c1cccc([N+](=O)[O-])c1` (stereo not drawn): the inhibition at 10 µM in data set [1] is under 50%. The inhibition entry in data set [2] is “inactive”.
